From patent US20220211810A1 (priority 2019, published 2022) come the findings set out here.

pKd: −log10 of the molar value.

In assay [1] the test system is experimental autoimmune uveitis (EAU) in C57/B16 mice. The assay can be described thus: Experimental autoimmune uveitis (EAU), topical treatment, clinical score by fundoscopy. The settings on record: twice daily 2-5 μl for 7 days, Maxidex, day 21 post immunization, n=12 eyes. The assay is classed as in vivo, mouse.
Assay [2] has as its target T1, nomacopan (EV576, rVA576, OmCI protein, Coversin), Ornithodoros moubata, amino acids 19 to 168 of SEQ ID NO: 2 (SEQ ID NO: 4) (Ornithodoros moubata, UniProt Q5YD59).
T1 sequence (Q5YD59 19-168): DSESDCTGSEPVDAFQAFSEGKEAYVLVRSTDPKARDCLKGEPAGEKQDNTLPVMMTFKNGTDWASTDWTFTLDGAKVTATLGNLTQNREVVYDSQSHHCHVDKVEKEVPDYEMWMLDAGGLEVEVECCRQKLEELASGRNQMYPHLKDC
The assay can be described thus: LTB4 binding by fluorescence titration (protein Tyr/Trp fluorescence quenching). The method, then:
This may be carried out as follows:
Purified 100 nM solutions of nomacopan, in 2 mL PBS were applied in a quartz cuvette (10 mm path length; Hellma, Mülheim, Germany) equipped with a magnetic stirrer. Temperature was adjusted to 20° C. and, after equilibrium was reached, protein Tyr/Trp fluorescence was excited at 280 nm (slit width: 15 nm). The fluorescence emission was measured at 340 nm (slit width: 16 nm) corresponding to the emission maximum. […] For calculation of the KD value, data was normalized to an initial fluorescence intensity of 100%, the inner filter effect was corrected using a titration of 3 μM N-acetyl-tryptophanamide solution and data was plotted against the corresponding ligand concentration. Then, non-linear least squares regression based on the law of mass action for bimolecular complex formation was used to fit the data with Origin software version 8.5 (OriginLab, Northampton, Mass., USA) using a published formula (Breustedt et al., 2006).

For the molecule `C[C@@H]1C[C@H]2[C@@H]3CCC4=CC(=O)C=C[C@]4(C)[C@@]3(F)[C@@H](O)C[C@]2(C)[C@@]1(O)C(=O)CO` [dexamethasone], the “clinical score compared with L-nomacopan treated mice” value in assay [1] was “in line with”. Take `CCCCC/C=C\C[C@@H](O)/C=C/C=C/C=C\[C@@H](O)CCCC(=O)O` [LTB4, Leukotriene B4]: in assay [2], the negative logarithm of the Kd (pKd) was 9.52 to 9.70.

As usually defined, the pKd is the Kd on a negative log10 scale, so that one unit is a factor of ten.
